“Also recorded” adds a separate entry of the source.
Experiments:
[1] = tested on: interleukin-8 (IL-8) production in human fibroblasts; assay: Fibroblast inflammation assay (LPS-induced IL-8, ELISA); format: cell-based; conditions: N = 3, 5 μg/mL LPS, 24 hours
Description: Inflammation in fibroblasts leads to the production of the chemokine interleukin-8 (IL-8), which stimulates fibroblast to myofibroblast transition (MFT) thereby enhancing scar formation. To determine if the peptides of the instant disclosure affect fibroblast response to inflammation and fibroblast IL-8 production, the following assays were performed.
Human fibroblasts were grown as described above. HNDFs were plated in 96 well plates at a concentration of 1×10^4 cells/well and allowed to incubate overnight. The next day cells were dosed with 5 μg/mL of LPS with and without the peptides. The negative control contained only media and vehicle, while the positive control was dosed with lipopolysaccharides (LPS) and dexamethasone (50 μg/ml). After 24 hours, the media was removed to measure IL6 and IL8 cytokine levels using ELISA. A standard curve was plotted in excel. All data were blank subtracted and then fit onto the curve to calculate cytokine concentrations.

[2] = tested on: Staphylococcus aureus, Streptococcus pneumoniae, Klebsiella pneumoniae, Pseudomonas aeruginosa, Acinetobacter baumannii; assay: Antimicrobial assays, growth of bacterial strains; format: cell-based
Description: Infection is another perturbation that causes fibrosis and may delay or inhibit wound healing. To determine if the peptides of the instant disclosure affect the growth of bacteria, and thus may be appropriate as antimicrobial peptides to be used in anti-fibrotic treatments, growth of the following bacterial strains was tested with the exemplary peptides: Staphylococcus aureus: USA300, ST80, JE2, and MRSA col; Streptococcus pneumoniae: DCC1335 and D39; Klebsiella pneumoniae; Pseudomonas aeruginosa; and Acinetobacter baumannii. […] Thus, in some embodiments, the peptides of the instant disclosure may bacterial growth, by a least 20%, at least 30%, at least 40%, at least 50%, at least 60%, at least 70%, or at least 80% relative to the control.
To determine which peptides may be used to inhibit the growth of bacteria in tissue, the minimum inhibitory and bactericidal concentrations of exemplary peptides against both Gram-positive and Gram-negative bacteria were assessed. […]
The antimicrobial effects of the exemplary peptides were assessed in the following bacterial strains: Staphylococcus aureus: USA300, ST80, JE2, and MRSA col; Streptococcus pneumoniae: DCC1335 and D39; Klebsiella pneumoniae ATCC 10031; Pseudomonas aeruginosa ATCC 27853; and Acinetobacter baumannii ATCC 196062. […]

[3] = tested on: Klebsiella pneumoniae ATCC 10031; assay: Broth microdilution method (MIC50/MIC90); format: cell-based
Description: (§1) Cell culture: Cultures of each bacterial strain were prepared by inoculating on Muller Hinton Agar (MHA) medium. After overnight incubation at 37° C., the density of the bacterial cells was compared to the McFarland turbidity standard (0.5).
(§2) Ten-fold serial dilution of the peptide along with controls were prepared in Mueller Hinton Broth (MHB) media in a total volume of 50 μl in 96 well plates. Additionally, 50 μl of the diluted standard inoculum (1:150 in MHB media) were added to each of the well plates. The plates were read at OD600 nm. MIC50 and MIC90 curves were calculated from the plate readout. Each sample was run in duplicate.

[4] = tested on: Pseudomonas aeruginosa ATCC 27853; assay: Broth microdilution method (MIC50/MIC90); format: cell-based
Description: as §1, §2

[5] = tested on: Staphylococcus aureus strains, including the MRSA col strain; assay: Broth microdilution method (MIC50/MIC90); format: cell-based
Description: as §1, §2

[6] = tested on: Acinetobacter baumannii ATCC 196062; assay: Broth microdilution method (MIC50/MIC90); format: cell-based
Description: as §1, §2

[7] = tested on: Staphylococcus aureus USA300 (NRS384), ST80, JE2, MRSA col; assay: Diffusion agar plate method, zone of inhibition; format: cell-based; conditions: 62.5 μg/ml to 1000 μg/ml; FIG. 5
Description: as §1
(§3) Plates were swabbed with McFarland 0.5 inoculum of each test bacteria. […] serial dilutions of the peptides were prepared and 20 μl of compound were dropped onto the MHA. Antibiotic disc served as a positive control and vehicle alone served as the negative control. Plates were incubated for 16-18 hours and assessed for antibacterial activity. Zones of inhibition were measured for each TA dilution and compared with the controls.

[8] = tested on: Pseudomonas aeruginosa ATCC 27853; assay: Diffusion agar plate method, zone of inhibition; format: cell-based; conditions: 62.5 μg/ml to 1000 μg/ml; FIG. 5
Description: as §1, §3

[9] = tested on: Acinetobacter baumannii ATCC 196062; assay: Diffusion agar plate method, zone of inhibition; format: cell-based; conditions: 62.5 μg/ml to 1000 μg/ml; FIG. 5, FIG. 10
Description: as §1, §3

[10] = tested on: Normal human dermal fibroblasts (HNDF); assay: Myofibroblast transition assay (MFT), aSMA immunofluorescence; format: cell-based; conditions: for Myofibroblast transition (MFT), aSMA/cell, % change relative to control / MFT, Representative value from experiments (% change relative to control): N = 3; for Myofibroblast transition (MFT), aSMA/cell, % change relative to control: TGF-Beta induced HNDF, control of no peptide; for MFT, Representative value from experiments (% change relative to control): most effective significant concentration of 10, 100, 1000 ng/ml
Description: The myofibroblast transition (MFT) assay determines the effect of the peptide on inhibiting the transition of fibroblasts to myofibroblasts. The extracellular matrix produced by myofibroblasts may be produced in excess and may not be remodeled during tissue healing, leaving behind the fibrous connective tissue that forms a scar. Thus, the ability to regulate the degree of MFT may enable control of scarring. To determine if the peptides provided herein affect MFT, the following assay was performed.
Normal human dermal fibroblasts (HNDF) were cultured in high glucose Dulbecco's modified eagle medium (DMEM) supplemented with 10% fetal bovine serum (FBS) and 5 ml of 10,000 units of penicillin/streptomycin. Cells were cultured on 10 cm plates with media changes every 2 days. Cells were passaged in 0.25% Trypsin/EDTA after achieving 80% confluency.
To induce myofibroblast transition (MFT), normal human dermal fibroblasts (HNDFs) were split from 1-10 cm plates to 5-96 well plates. Cells were then allowed to grow the next day. The following day, cells were serum starved (1% FBS in DMEM) for 4 hours prior to adding 20 ng/ml of TGF-Beta to all wells of the plate. 1000 μM of Vactosertib (TEW-7197/EW-7197) was added to serve as a positive control and different concentrations of peptides were added to serve as the test articles. The cells were then exposed to the compounds for 5 more days before fixation.
The cells were fixed in paraformaldehyde (PFA) for 10-15 minutes, then washed 2× in PBS. Cells were blocked in 4% BSA for 30 minutes at 23° C. Cells were stained with the primary alpha-smooth muscle actin (aSMA) antibody (1:100) for 1 hour at 23° C. or left out at 4° C. overnight. Cells were rinsed 2× with BSA and then the secondary antibody mix was added: Alexa 488 (1:500) and DAPI (1:1000) for 30 min at 23° C. or 1 hr at 4° C. The plates were covered during staining, then rinsed 2× in BSA and stored in PBS.
Plates were imaged using the Celigo Imaging Cytometer by Nexcelcom. The ratio of fluorescent expression of alpha-smooth muscle actin (aSMA) and DAPI were quantified to determine the amount of aSMA/cell.
The change (normalized to the control) in MFT for each concentration is shown along with the p value for all experiments relative to the control of no peptide.

[11] = tested on: Staphylococcus aureus ST80; assay: Minimum bactericidal concentration (MBC); format: cell-based; conditions: agar plates; FIG. 9
Description: (§4) The minimum bactericidal concentration (MBC) test determines the lowest concentration at which an antimicrobial agent will kill a particular microorganism. The MBC is determined using a series of steps, undertaken after a Minimum Inhibitory Concentration (MIC) test has been completed. o determine the MBC, the dilution representing the MIC and at least two of the more concentrated test product dilutions are plated and enumerated to determine viable CFU/ml. The […] of the peptides was determined as the lowest concentration in which colony forming units (CFU) values were <5 colonies/10 μl of culture.

[12] = tested on: Klebsiella pneumoniae ATCC 10031; assay: Minimum bactericidal concentration (MBC); format: cell-based; conditions: agar plates; FIG. 9
Description: as §4

[13] = tested on: Acinetobacter baumannii ATCC 196062; assay: Minimum bactericidal concentration (MBC); format: cell-based; conditions: agar plates; FIG. 9
Description: as §4

skin after dermabrasion [14] = assay: Clinical study, Visioscan skin smoothness after dermabrasion; format: in vivo, human; conditions: 8, 24, 48 and 72 hours after dermabrasion; vehicle cream base
Description: (§5) To determine the effects of exemplary peptides p1-p9 on tissue healing, a clinical study was performed that assessed transepidermal water loss (TEWL) and skin smoothness after dermabrasion.
(§6) This exemplary vehicle cream has a pH of 5.0, no odor and is white in color.
(§7) After 8 hours (T8h) of first product application, the subjects returned to the Institute, acclimated for 15 minutes and new Vapometer® to measure TEWL and Visioscan® VC 20Plus to measure skin smoothness was performed. After 1 (T1d), 2 (T2d) and 3 (T3d) days the subjects returned to the Institute, acclimated for 15 minutes and new measurements were performed. At time-points T1d and T2d new product application was performed by the technician on each test site. A total of 49 study subjects were included in the study and a total of 41 completed the study. The study included post-menopausal female subjects, aged between 50 and 65 years old (mean age: 59 years old), presenting Fitzpatrick Skin Types II-V.
Skin texture images were performed using the Visioscan® VC 20Plus, which allows taking pictures of the skin through magnifying lenses. The images enable a view of the skin topography, texture, dryness, desquamation, blemishes, pores, and cuticles.

skin after dermabrasion [15] = assay: Clinical study, transepidermal water loss (TEWL, Vapometer) after dermabrasion; format: in vivo, human; conditions: 8, 24, 48 hours, vehicle cream base
Description: as §5, §6
as §7, with “The study included post-menopausal female subjects, aged between 50 and 65 years old (mean age: 59 years old), presenting Fitzpatrick Skin Types II-V.” left out
The TEWL measurements were performed by using the Vapometer® device through a measurement probe. The readings were taken by applying the probe to the test sites, by resting it against the skin.
The measurements principle is diffusion, which indicates the mass of water per cm^2 that is transported in a given period of time, that is, the reading indicates the degree of water evaporation on the skin surface based on the sensitivity of hygro-sensors. The scale used is g/h/m^2, in which greater values of reading indicate higher evaporation. […]

skin post-dermabrasion = assay: Clinical study, erythema (Chromameter a* value) post-dermabrasion; format: in vivo, human; conditions: 4 hours and 12 hours after application
Description: To determine the effects of the peptides on skin redness, the peptides P2, P3, and the combination of P2+P3 were tested at different concentration levels and subject's skin redness (erythema) was measured post-dermabrasion and 2, 4, 8, 12, 24, 48 and 72 hours post-application. The subjects were 30 post-menopausal female subjects, aged 50-65 years or younger, if post-menopausal. Enrolled subjects were to have Fitzpatrick Skin Types II-V. At baseline (post-dermabrasion) and 2, 4, 8, 12, 24, 48 and 72 hours post-application, skin redness was measured on 4 skin sites using the Chromameter® (Konica Minolta, Ramsey NJ). In order to determine any changes in skin redness, the a* value was analyzed. The a* value measures redness/erythema in the skin. A decrease in the a* value corresponded to a whitening/improvement (less red) effect and an increase in the a*value represented a darkening/worsening (redder) effect

[16] = tested on: Streptococcus pneumoniae DCC1335; assay: Diffusion agar plate method, zone of inhibition; format: cell-based; conditions: 62.5 μg/ml to 1000 μg/ml; FIG. 10
Description: as §1, §3

FAYCRSKGLRKRLRKFRNK [MBb32] was tested, and the “Fibroblast induced chemokine production (IL-8) induced by LPS (% change relative to control)” value ([1]; 100 ug/ml peptide) was 4% (p = .054), the “Fibroblast induced chemokine production (IL-8) induced by LPS (% change relative to control)” value ([1]; 1000 ug/ml peptide) was 29% (p = 0.035) and the “inhibition of bacterial growth among those peptides tested” value [2] was “strongest effect”. For the same sequence, the “MIC50, growth inhibition of bacteria in broth” value (“MIC50, growth inhibition” below) [3] was “low MIC50”, the “MIC50, growth inhibition” value [4] was “low MIC50” and the “MIC50, growth inhibition” value [5] was “low MIC50”. For the same sequence, the “MIC50, growth inhibition” value [6] was “lowest MIC50”, the “agar zone of inhibition, inhibiting bacterial growth” value (“agar zone of inhibition” below) [7] was “effective” and the “agar zone of inhibition” value [8] was “effective”. For the same sequence, the “agar zone of inhibition” value [9] was “effective”, the “Myofibroblast transition (MFT), aSMA/cell, % change relative to control” value ([10]; 100 ng/ml peptide) was −0.2592% and the “Myofibroblast transition (MFT), aSMA/cell, % change relative to control” value ([10]; 1000 ng/ml peptide) was −0.3087%. For the same sequence, the “MFT, Representative value from experiments (% change relative to control)” value [10] was −0.3087 p = (0.039) %, the “minimum bactericidal concentration (MBC), bactericidal effect” value (“minimum bactericidal concentration (MBC)” for short) [11] was “bactericidal effect” and the “minimum bactericidal concentration (MBC)” value [12] was “bactericidal effect”. For the same sequence, the “minimum bactericidal concentration (MBC)” value [13] was “bactericidal effect”.

In the case of SKPAKAPE [Peptide P3], the “skin smoothness (Visioscan)” value (skin after dermabrasion [14]) is reported as “visible; also recorded: most promising skin smoothness results”, the “TEWL, skin barrier restoration” value (skin after dermabrasion [15]) is reported as “most promising TEWL assay results; also recorded: most promising results in skin barrier restoration” and the “skin redness (erythema), a* value” (skin post-dermabrasion) is reported as “significantly improved erythema; also recorded: improve skin redness”. The “Myofibroblast transition (MFT), aSMA/cell, % change relative to control” value ([10]; 1000 ng/ml peptide) was −0.4914%, the “MFT, Representative value from experiments (% change relative to control)” value [10] was −0.4914 p = (0.006) % and the “aSMA decrease relative to the control (fluorescence, FIG. 3)” value ([10]; negative control of no peptide) was 49%.

In the case of SLSRTLWAWLPRPCKSN [MBdol20], the “MIC50 and MIC90, inhibiting bacterial growth in broth” value ([6]; FIG. 11) is reported as “most effective”, the “agar zone of inhibition” value [16] is reported as “effective” and the “agar zone of inhibition” value [9] is reported as “effective”.

Reference: patent US20250108088A1, “REGENERATIVE PEPTIDES AND METHODS FOR USE THEREOF” (priority 2023, published 2025)
